Results reported in paper PMC8765781, “A platform of assays for the discovery of anti-Zika small-molecules with activity in a 3D-bioprinted outer-blood-retina model” (PLoS ONE, 2022).
Like-named read-outs stand apart in the source and are kept apart here. *1 amine or outer side, *2 acyl side, *3 side chain or, on linkers, in order; H or OH if unused. Where a SMILES comes first, the peptide text is derived from it. [ ]: non-standard residue; d: D form. X3 = CC(CC(O[*:1])C(=O)[*:2])C(=O)O; NMeV = CN[CH](C(=O)O)C(C)C; NMeA = CN[CH](C)C(=O)O; βAla = NCCC(=O)O

What was measured:
[1] = system: ZIKV-RLuc (Cambodian strain FSS13025); experiment: microbe, parasite or virus in culture; type: cell-based, Zika virus
[2] = Zika virus, Vero, read-out: Log AC50 (M) (converted)

SMILES	AC50 (Vero cells) [µM]	Log AC50 (M) (Vero cells)	CC-v2 (curve class classification v2 of the dose response curve) [1]	Efficacy (difference between neutral response and maximum compound response) [1]	Max Resp (difference between neutral response and compound response for highest compound concentration) [1]	AC50 ([1]; Zika virus, Vero) [M]	AC50 [1, 2] [M]	AC50 [1] [M]	Log AC50 (M) [1]
CN1CCN(CCCN2c3ccccc3Sc3ccc(C(F)(F)F)cc32)CC1 [NCGC00013226-15]	23.3	-4.6327	-2.1	-93.82	-95.429	2.33e-05	2.33e-05	–	–
CC(C)(O)/C=C\C(=O)[C@](C)(O)[C@H]1[C@H](O)C[C@]2(C)[C@@H]3CC=C4[C@@H](C=C(O)C(=O)C4(C)C)[C@]3(C)C(=O)C[C@@]12C [NCGC00014911-01]	3.29	-5.4827	-1.1	-103.985	-99.739	3.29e-06	3.29e-06	–	–
CCCCc1oc2ccccc2c1C(=O)c1cc(I)c(OCCN(CC)CC)c(I)c1 [NCGC00015096-17]	18.5	-4.7327	-2.1	-100.133	-98.715	1.85e-05	1.85e-05	–	–
CNCCC(Oc1ccc(C(F)(F)F)cc1)c1ccccc1 (stereo not shown) [NCGC00015428-15]	16.5	-4.7827	-2.2	-78.657	-76.003	1.65e-05	1.65e-05	–	–
OCCN1CCN(CCCN2c3ccccc3Sc3ccc(C(F)(F)F)cc32)CC1 [NCGC00015436-11]	26.1	-4.5827	-3	-75.446	-79.581	2.61e-05	2.61e-05	–	–
CC(C)(Sc1ccc(CCN(CCCCC2CCCCC2)C(=O)NC2CCCCC2)cc1)C(=O)O [NCGC00015480-13]	32.9	–	-2.2	-93.466	-98.662	3.29e-05	3.29e-05	–	–
O=C(Nc1ccc([N+](=O)[O-])cc1Cl)c1cc(Cl)ccc1O [NCGC00015735-11]	0.362	-6.4408	-1.1	-106.368	-100.429	–	–	3.62e-07	-6.4408
O=C(Nc1ccc([N+](=O)[O-])cc1Cl)c1cc(Cl)ccc1O [NCGC00015735-12]	1.04	-5.9827	-1.1	-94.574	-99.55	–	–	1.04e-06	-5.9827
CCCN(CC1CC1)c1nc(C)nc(Nc2c(Cl)cc(Cl)cc2Cl)c1Cl [NCGC00015737-02]	36.9	-4.4327	-3	-116.403	-99.557	3.69e-05	3.69e-05	–	–
COC(=O)C1=C(C)NC(C)=C(C(=O)OCCN(C)Cc2ccccc2)C1c1cccc([N+](=O)[O-])c1 (stereo not shown) [NCGC00015747-03]	36.9	-4.4327	-3	-68.655	-54.296	3.69e-05	3.69e-05	–	–
O=c1[nH]c2ccccc2n1C1CCN(CCCC(c2ccc(F)cc2)c2ccc(F)cc2)CC1 [NCGC00015802-18]	20.8	-4.6827	-2.1	-98.365	-96.477	2.08e-05	2.08e-05	–	–
COc1ccc(CCN(C)CCCC(C#N)(c2ccc(OC)c(OC)c2)C(C)C)cc1OC (stereo not shown) [NCGC00016083-13]	15.1	-4.8199	–	–	–	1.51e-05	1.51e-05	–	–
CC(=O)O[C@H]1C(=O)[C@@]2(C)C([C@H](OC(=O)c3ccccc3)[C@]3(O)C[C@H](OC(=O)[C@H](O)[C@@H](NC(=O)c4ccccc4)c4ccccc4)C(C)=C1C3(C)C)[C@]1(OC(C)=O)CO[C@@H]1C[C@@H]2O (stereo partly shown) [NCGC00024995-10]	20.8	-4.6827	-2.2	-75.217	-63.948	2.08e-05	2.08e-05	–	–
C[S+]([O-])c1ccc(-c2nc(-c3ccc(F)cc3)c(-c3ccncc3)[nH]2)cc1 (stereo not shown) [NCGC00025035-05]	47.9	-4.3199	-2.1	-107.599	-87.79	4.79e-05	4.79e-05	–	–
CC#C[C@]1(O)CC[C@H]2[C@@H]3CCC4=CC(=O)CCC4=C3[C@@H](c3ccc(N(C)C)cc3)C[C@@]21C [NCGC00025179-12]	26.1	-4.5827	-3	-109.046	-95.447	2.61e-05	2.61e-05	–	–
CCCCc1ccc(N[S+](=O)([O-])c2ccc(C)c(C(=O)N3CCN(c4cccc(C)c4C)CC3)c2)cc1 [NCGC00263234-01]	–	–	-3	-38.307	-30.256	7.59e-05	7.59e-05	–	–
COc1ccc(/C=C/C(=O)/C=C/c2ccc(OC)cc2)cc1 [NCGC00336197-02]	–	–	3	41.267	6.905	–	–	–	–
CCc1ccc(C(=O)Nc2cc(CN3CCN(C)CC3)cc(C(F)(F)F)c2)cc1C#Cc1cnc2ccnn2c1 [NCGC00347217-02]	–	–	-3	-116.826	-100.407	–	–	–	–
CN(C)c1cccc(-c2c3c(=O)n(-c4ccccc4Cl)[nH]c3cc(=O)n2C)c1 [NCGC00378460-01]	–	–	4	10.267	14.909	–	–	–	–
CCC(C)C1NC(=O)C2CCCN2C(=O)C(CC(C)C(=O)O)OC(=O)CCNC(=O)C(C)N(C)C(=O)C(C(C)C)N(C)C1=O (stereo not shown) [NCGC00380598-01] (cyclo([X3]PI[NMeV][NMeA][βAla]); configuration not given here)	–	–	4	-20.973	-24.561	–	–	–	–
CC1OC(OC2C(c3c(O)cc(OC4OC(CO)C(O)C(O)C4O)c4c(=O)cc(-c5ccc(O)cc5)oc34)OC(CO)C(O)C2O)C(O)C(O)C1O (stereo not shown) [NCGC00384535-01]	–	–	4	–	-6.059	–	–	–	–
COc1c(O)c(C(=O)/C=C/c2ccccc2)c(OC)c(OC)c1OC [NCGC00384644-01]	–	–	4	–	-2.089	–	–	–	–
CC1OC(OC2C(O)COC(O[C@@H]3[C@@H](O)[C@@H](O)[C@H](OC4C(OC(=O)[C@]56CCC(C)(C)CC5C5=CCC7[C@@]8(C)C[C@H](O)[C@H](OC9OC(CO)C(O)C(O)C9O)[C@@](C)(CO)C8[C@H](O)C[C@@]7(C)[C@]5(C)CC6)OCC(O)C4O)O[C@H]3C)C2O)C(O)C(O)C1O (stereo partly shown) [NCGC00385323-01]	–	–	-3	–	-39.964	–	–	–	–
CC(=O)O[C@H]1C[C@@H]2[C@]3(CC[C@]4(C)[C@@H](C5(C)CCC(C(C)(C)O)O5)[C@@H](O)C[C@@]24C)C[C@@]32CC[C@H](O[C@@H]3OC[C@@H](O)[C@H](O)[C@H]3O)C(C)(C)[C@H]12 (stereo partly shown) [NCGC00385494-01]	–	–	4	27.089	-22.612	–	–	–	–
CCC(C)C(O)C(=O)OC1CC2C(C)(C)C(OC(C)=O)CC(OC(C)=O)C2(C)C2CC(OC(C)=O)C3(C)C(=CCC3c3ccoc3)C12C (stereo not shown) [NCGC00385571-01]	–	–	-3	0	-47.611	–	–	–	–
CC1=CC(=O)C(=C(C)C)CC2C(C)(O)CCC12O (stereo not shown) [NCGC00385849-01]	–	–	-1.2	-35.641	-12.132	–	–	–	–
